Experiments:
Format in all cases: cell-based
Details in all cases: compound concentration 50 μM, 72 hours
SU-DHL6 = assay: Inhibition of tumor cell proliferation, CellTiter-Glo, SU-DHL6
Procedure: (§1) For various cell lines, the corresponding complete medium was used, and culture was carried out in an incubator at 37° C. with 5% CO2. The cells were counted, and inoculated into a 96-well plate at 2000-10000 cells/100 μl per well according to the cell volume and growth rate. The suspended cells were treated immediately, and the adherent cells were treated after adherence. The CellTiter-Glo method was used to detect the changes in cell viability 72 hours after the administration, and the cell survival rate at different concentrations was calculated by a formula: Survival rate (%)=(RLU of treatment well−RLU of blank well)/(RLU of control well−RLU of blank well)×100.
(§2) Method for expressing the inhibitory activity of the compounds against the proliferation of tumor cells: Evaluation was made based on the cell survival rate at a compound concentration of 50 μM. 60≤survival rate (%)<90 is considered to have low inhibitory activity against the proliferation of tumor cells (+); 30<survival rate (%)≤60 is considered to have moderate inhibitory activity against the proliferation of tumor cells (++); and survival rate (%)≤30 is considered to have high inhibitory activity against the proliferation of tumor cells (+++).

RPMI-8226 = assay: Inhibition of tumor cell proliferation, CellTiter-Glo, RPMI-8226
Procedure: as §1, §2

MDA-MB-453 = assay: Inhibition of tumor cell proliferation, CellTiter-Glo, MDA-MB-453
Procedure: as §1, §2

K562 = assay: Inhibition of tumor cell proliferation, CellTiter-Glo, K562
Procedure: as §1, §2

A549 = assay: Inhibition of tumor cell proliferation, CellTiter-Glo, A549
Procedure: as §1, §2

BxPC-3 = assay: Inhibition of tumor cell proliferation, CellTiter-Glo, BxPC-3
Procedure: as §1, §2

O=C1CCC(N2Cc3c(NC=C4C(=O)CC(c5c6ccccc6cc6ccccc56)CC4=O)cccc3C2=O)C(=O)N1 (stereo not drawn) [Compound 30]
Inhibitory activity against proliferation (cell survival rate) SU-DHL6 (SU-DHL6): +++ (survival rate (%)≤30) | Inhibitory activity against proliferation (cell survival rate) RPMI-8226 (RPMI-8226): +++ (survival rate (%)≤30) | Inhibitory activity against proliferation (cell survival rate) MDA-MB-453 (MDA-MB-453): +++ (survival rate (%)≤30) | Inhibitory activity against proliferation (cell survival rate) K562 (K562): +++ (survival rate (%)≤30) | Inhibitory activity against proliferation (cell survival rate) A549 (A549): +++ (survival rate (%)≤30) | Inhibitory activity against proliferation (cell survival rate) BxPC-3 (BxPC-3): + (60≤survival rate (%)<90)

CN(C)c1ccc(Br)c(C2CC(=O)C(=CNc3cccc4c3CN(C3CCC(=O)NC3=O)C4=O)C(=O)C2)c1 (stereo not drawn) [Compound 31]
Inhibitory activity against proliferation (cell survival rate) SU-DHL6 (SU-DHL6): +++ (survival rate (%)≤30) | Inhibitory activity against proliferation (cell survival rate) RPMI-8226 (RPMI-8226): +++ (survival rate (%)≤30) | Inhibitory activity against proliferation (cell survival rate) MDA-MB-453 (MDA-MB-453): +++ (survival rate (%)≤30) | Inhibitory activity against proliferation (cell survival rate) K562 (K562): +++ (survival rate (%)≤30) | Inhibitory activity against proliferation (cell survival rate) A549 (A549): +++ (survival rate (%)≤30) | Inhibitory activity against proliferation (cell survival rate) BxPC-3 (BxPC-3): + (60≤survival rate (%)<90)

COc1ccc(C2CC(=O)C(=CNc3cccc4c3CN(C3CCC(=O)NC3=O)C4=O)C(=O)C2)cc1 (stereo not drawn) [Compound 32]
Inhibitory activity against proliferation (cell survival rate) SU-DHL6 (SU-DHL6): +++ (survival rate (%)≤30) | Inhibitory activity against proliferation (cell survival rate) RPMI-8226 (RPMI-8226): +++ (survival rate (%)≤30) | Inhibitory activity against proliferation (cell survival rate) MDA-MB-453 (MDA-MB-453): ++ (30<survival rate (%)≤60) | Inhibitory activity against proliferation (cell survival rate) K562 (K562): +++ (survival rate (%)≤30) | Inhibitory activity against proliferation (cell survival rate) A549 (A549): +++ (survival rate (%)≤30) | Inhibitory activity against proliferation (cell survival rate) BxPC-3 (BxPC-3): + (60≤survival rate (%)<90)

COC(=O)c1ccc(C2CC(=O)C(=CNc3cccc4c3CN(C3CCC(=O)NC3=O)C4=O)C(=O)C2)cc1 (stereo not drawn) [Compound 33]
Inhibitory activity against proliferation (cell survival rate) SU-DHL6 (SU-DHL6): +++ (survival rate (%)≤30) | Inhibitory activity against proliferation (cell survival rate) RPMI-8226 (RPMI-8226): +++ (survival rate (%)≤30) | Inhibitory activity against proliferation (cell survival rate) MDA-MB-453 (MDA-MB-453): +++ (survival rate (%)≤30) | Inhibitory activity against proliferation (cell survival rate) K562 (K562): +++ (survival rate (%)≤30) | Inhibitory activity against proliferation (cell survival rate) A549 (A549): +++ (survival rate (%)≤30) | Inhibitory activity against proliferation (cell survival rate) BxPC-3 (BxPC-3): + (60≤survival rate (%)<90)

O=C1CCC(N2Cc3c(NC=C4C(=O)CC(c5ccc(O)cc5)CC4=O)cccc3C2=O)C(=O)N1 (stereo not drawn) [Compound 34]
Inhibitory activity against proliferation (cell survival rate) SU-DHL6 (SU-DHL6): +++ (survival rate (%)≤30) | Inhibitory activity against proliferation (cell survival rate) RPMI-8226 (RPMI-8226): ++ (30<survival rate (%)≤60) | Inhibitory activity against proliferation (cell survival rate) MDA-MB-453 (MDA-MB-453): +++ (survival rate (%)≤30) | Inhibitory activity against proliferation (cell survival rate) K562 (K562): ++ (30<survival rate (%)≤60) | Inhibitory activity against proliferation (cell survival rate) A549 (A549): + (60≤survival rate (%)<90) | Inhibitory activity against proliferation (cell survival rate) BxPC-3 (BxPC-3): + (60≤survival rate (%)<90)

O=C1CCC(N2Cc3c(NC=C4C(=O)CC(c5ccccc5Cc5ccccc5)CC4=O)cccc3C2=O)C(=O)N1 (stereo not drawn) [Compound 35]
Inhibitory activity against proliferation (cell survival rate) SU-DHL6 (SU-DHL6): +++ (survival rate (%)≤30) | Inhibitory activity against proliferation (cell survival rate) RPMI-8226 (RPMI-8226): +++ (survival rate (%)≤30) | Inhibitory activity against proliferation (cell survival rate) MDA-MB-453 (MDA-MB-453): ++ (30<survival rate (%)≤60) | Inhibitory activity against proliferation (cell survival rate) K562 (K562): +++ (survival rate (%)≤30) | Inhibitory activity against proliferation (cell survival rate) A549 (A549): +++ (survival rate (%)≤30) | Inhibitory activity against proliferation (cell survival rate) BxPC-3 (BxPC-3): ++ (30<survival rate (%)≤60)

O=C1CCC(N2Cc3c(NC=C4C(=O)CC(c5cccs5)CC4=O)cccc3C2=O)C(=O)N1 (stereo not drawn) [Compound 36]
Inhibitory activity against proliferation (cell survival rate) SU-DHL6 (SU-DHL6): +++ (survival rate (%)≤30) | Inhibitory activity against proliferation (cell survival rate) RPMI-8226 (RPMI-8226): + (60≤survival rate (%)<90) | Inhibitory activity against proliferation (cell survival rate) MDA-MB-453 (MDA-MB-453): ++ (30<survival rate (%)≤60) | Inhibitory activity against proliferation (cell survival rate) K562 (K562): + (60≤survival rate (%)<90) | Inhibitory activity against proliferation (cell survival rate) A549 (A549): + (60≤survival rate (%)<90) | Inhibitory activity against proliferation (cell survival rate) BxPC-3 (BxPC-3): + (60≤survival rate (%)<90)

O=C1CCC(N2Cc3c(NC=C4C(=O)CC(c5csc6ccccc56)CC4=O)cccc3C2=O)C(=O)N1 (stereo not drawn) [Compound 37]
Inhibitory activity against proliferation (cell survival rate) SU-DHL6 (SU-DHL6): +++ (survival rate (%)≤30) | Inhibitory activity against proliferation (cell survival rate) RPMI-8226 (RPMI-8226): + (60≤survival rate (%)<90) | Inhibitory activity against proliferation (cell survival rate) MDA-MB-453 (MDA-MB-453): +++ (survival rate (%)≤30) | Inhibitory activity against proliferation (cell survival rate) K562 (K562): + (60≤survival rate (%)<90) | Inhibitory activity against proliferation (cell survival rate) A549 (A549): + (60≤survival rate (%)<90) | Inhibitory activity against proliferation (cell survival rate) BxPC-3 (BxPC-3): + (60≤survival rate (%)<90)

COc1ccc(C2CC(=O)C(=CNc3cccc4c3CN(C3CCC(=O)NC3=O)C4=O)C(=O)C2)c(OC)c1 (stereo not drawn) [Compound 40]
Inhibitory activity against proliferation (cell survival rate) SU-DHL6 (SU-DHL6): + (60≤survival rate (%)<90) | Inhibitory activity against proliferation (cell survival rate) RPMI-8226 (RPMI-8226): + (60≤survival rate (%)<90) | Inhibitory activity against proliferation (cell survival rate) MDA-MB-453 (MDA-MB-453): + (60≤survival rate (%)<90) | Inhibitory activity against proliferation (cell survival rate) K562 (K562): +++ (survival rate (%)≤30) | Inhibitory activity against proliferation (cell survival rate) A549 (A549): +++ (survival rate (%)≤30) | Inhibitory activity against proliferation (cell survival rate) BxPC-3 (BxPC-3): ++ (30<survival rate (%)≤60)

Cc1cc(C(=O)Nc2cccc3c2CN(C2CCC(=O)NC2=O)C3=O)ccc1NC=C1C(=O)CC(c2ccccc2)CC1=O (stereo not drawn) [Compound 51]
Inhibitory activity against proliferation (cell survival rate) SU-DHL6 (SU-DHL6): + (60≤survival rate (%)<90) | Inhibitory activity against proliferation (cell survival rate) RPMI-8226 (RPMI-8226): +++ (survival rate (%)≤30) | Inhibitory activity against proliferation (cell survival rate) MDA-MB-453 (MDA-MB-453): + (60≤survival rate (%)<90) | Inhibitory activity against proliferation (cell survival rate) K562 (K562): + (60≤survival rate (%)<90) | Inhibitory activity against proliferation (cell survival rate) A549 (A549): + (60≤survival rate (%)<90) | Inhibitory activity against proliferation (cell survival rate) BxPC-3 (BxPC-3): + (60≤survival rate (%)<90)

O=C1CCC(N2Cc3c(NC(=O)c4ccccc4NC=C4C(=O)CC(c5ccccc5)CC4=O)cccc3C2=O)C(=O)N1 (stereo not drawn) [Compound 52]
Inhibitory activity against proliferation (cell survival rate) SU-DHL6 (SU-DHL6): + (60≤survival rate (%)<90) | Inhibitory activity against proliferation (cell survival rate) RPMI-8226 (RPMI-8226): +++ (survival rate (%)≤30) | Inhibitory activity against proliferation (cell survival rate) MDA-MB-453 (MDA-MB-453): ++ (30<survival rate (%)≤60) | Inhibitory activity against proliferation (cell survival rate) K562 (K562): +++ (survival rate (%)≤30) | Inhibitory activity against proliferation (cell survival rate) A549 (A549): ++ (30<survival rate (%)≤60) | Inhibitory activity against proliferation (cell survival rate) BxPC-3 (BxPC-3): + (60≤survival rate (%)<90)

O=C1CCC(N2Cc3c(NC(=O)c4cccc(NC=C5C(=O)CC(c6ccccc6)CC5=O)c4)cccc3C2=O)C(=O)N1 (stereo not drawn) [Compound 53]
Inhibitory activity against proliferation (cell survival rate) SU-DHL6 (SU-DHL6): +++ (survival rate (%)≤30) | Inhibitory activity against proliferation (cell survival rate) RPMI-8226 (RPMI-8226): +++ (survival rate (%)≤30) | Inhibitory activity against proliferation (cell survival rate) MDA-MB-453 (MDA-MB-453): ++ (30<survival rate (%)≤60) | Inhibitory activity against proliferation (cell survival rate) K562 (K562): +++ (survival rate (%)≤30) | Inhibitory activity against proliferation (cell survival rate) A549 (A549): +++ (survival rate (%)≤30) | Inhibitory activity against proliferation (cell survival rate) BxPC-3 (BxPC-3): + (60≤survival rate (%)<90)

O=C1CCC(N2Cc3c(NC(=O)CN4CCN(CCNC=C5C(=O)CC(c6ccccc6)CC5=O)CC4)cccc3C2=O)C(=O)N1 (stereo not drawn) [Compound 54]
Inhibitory activity against proliferation (cell survival rate) SU-DHL6 (SU-DHL6): +++ (survival rate (%)≤30) | Inhibitory activity against proliferation (cell survival rate) RPMI-8226 (RPMI-8226): ++ (30<survival rate (%)≤60) | Inhibitory activity against proliferation (cell survival rate) MDA-MB-453 (MDA-MB-453): ++ (30<survival rate (%)≤60) | Inhibitory activity against proliferation (cell survival rate) K562 (K562): +++ (survival rate (%)≤30) | Inhibitory activity against proliferation (cell survival rate) A549 (A549): +++ (survival rate (%)≤30) | Inhibitory activity against proliferation (cell survival rate) BxPC-3 (BxPC-3): + (60≤survival rate (%)<90)

O=C1CCC(N2C(=O)c3cccc(NC(=O)CN4CCN(CCNC=C5C(=O)CC(c6ccccc6)CC5=O)CC4)c3C2=O)C(=O)N1 (stereo not drawn) [Compound 55]
Inhibitory activity against proliferation (cell survival rate) SU-DHL6 (SU-DHL6): +++ (survival rate (%)≤30) | Inhibitory activity against proliferation (cell survival rate) RPMI-8226 (RPMI-8226): ++ (30<survival rate (%)≤60) | Inhibitory activity against proliferation (cell survival rate) MDA-MB-453 (MDA-MB-453): ++ (30<survival rate (%)≤60) | Inhibitory activity against proliferation (cell survival rate) K562 (K562): + (60≤survival rate (%)<90) | Inhibitory activity against proliferation (cell survival rate) A549 (A549): +++ (survival rate (%)≤30) | Inhibitory activity against proliferation (cell survival rate) BxPC-3 (BxPC-3): + (60≤survival rate (%)<90)
